32 molecules from ChEMBL document CHEMBL5543162, “Discovery of a Novel Orally Bioavailable FLT3-PROTAC Degrader for Efficient Treatment of Acute Myeloid Leukemia and Overcoming Resistance of FLT3 Inhibitors” (J Med Chem, 2024) can be followed below.

For assay [1], the system named is MOLM-13. In words: Antiproliferative activity against human MOLM-13 cells incubated for 48 hrs by CCK8 assay. Conditions: MOLM-13, 48 h. The format is functional, cell-based.
Assay [2] deals with MV4-11. In words: Antiproliferative activity against human MV4-11 cells expressing FLT3-ITD mutant incubated for 48 hrs by CCK8 assay. Particulars: MV4-11, 48 h. The format is functional, cell-based.
Assay [3] deals with MOLM-13. Kind of assay: Antiproliferative activity against Quizartinib-resistant human MOLM-13 cells incubated for 48 hrs by CCK8 assay. The format is functional, cell-based. Particulars: MOLM-13, 48 h. A general note: Formazan colour is commonly taken as a measure of viable cells.
The subject of assay [4] is MOLM-13. Kind of assay: Antiproliferative activity against Sunitinib-resistant human MOLM-13 cells incubated for 48 hrs by CCK8 assay. Conditions: MOLM-13, 48 h. The format is functional, cell-based.
Assay [5] concerns Protein cereblon/Receptor-type tyrosine-protein kinase FLT3 (Homo sapiens), P36888+Q96SW2 [UNDEFINED MUTATION]. In words: PROTAC activity at CRBN/FLT3-ITD mutant in human MV4-11 cells assessed as protein degradation at 100 nM incubated for 8 hrs by Western blot analysis. In kind it is cell-based. Background: In western blotting, separated proteins are transferred to a membrane and probed.
Sequence of Protein cereblon/Receptor-type tyrosine-protein kinase FLT3 (Homo sapiens), P36888+Q96SW2 [UNDEFINED MUTATION] (P36888 whole entry, looked up, stated change not applied): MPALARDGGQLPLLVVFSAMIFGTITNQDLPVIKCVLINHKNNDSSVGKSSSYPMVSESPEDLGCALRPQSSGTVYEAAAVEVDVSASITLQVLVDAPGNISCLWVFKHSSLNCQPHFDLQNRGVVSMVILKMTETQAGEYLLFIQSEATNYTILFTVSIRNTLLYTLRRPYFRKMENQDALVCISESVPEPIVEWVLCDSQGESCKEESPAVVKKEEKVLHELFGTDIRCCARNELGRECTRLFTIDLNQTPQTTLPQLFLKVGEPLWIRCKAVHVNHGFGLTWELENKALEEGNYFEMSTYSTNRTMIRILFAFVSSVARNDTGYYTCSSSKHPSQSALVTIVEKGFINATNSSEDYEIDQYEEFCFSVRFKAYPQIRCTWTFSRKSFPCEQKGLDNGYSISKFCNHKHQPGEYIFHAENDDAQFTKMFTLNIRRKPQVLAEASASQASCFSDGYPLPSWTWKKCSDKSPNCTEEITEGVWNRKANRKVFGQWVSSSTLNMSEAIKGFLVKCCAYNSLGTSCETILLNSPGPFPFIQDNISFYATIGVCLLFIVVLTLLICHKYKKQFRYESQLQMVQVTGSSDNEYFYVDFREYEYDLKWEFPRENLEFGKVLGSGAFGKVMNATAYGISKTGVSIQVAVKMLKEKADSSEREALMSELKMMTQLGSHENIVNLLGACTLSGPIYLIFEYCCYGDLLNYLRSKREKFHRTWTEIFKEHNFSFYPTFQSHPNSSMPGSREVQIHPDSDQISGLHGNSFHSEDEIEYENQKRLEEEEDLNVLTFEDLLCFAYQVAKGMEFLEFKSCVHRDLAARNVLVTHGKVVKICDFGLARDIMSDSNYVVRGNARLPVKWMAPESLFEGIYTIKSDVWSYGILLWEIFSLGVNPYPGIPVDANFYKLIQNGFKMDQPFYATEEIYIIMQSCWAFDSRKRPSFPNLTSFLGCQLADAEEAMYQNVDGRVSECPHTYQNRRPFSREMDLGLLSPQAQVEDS
Sequence of Protein cereblon/Receptor-type tyrosine-protein kinase FLT3 (Homo sapiens), P36888+Q96SW2 [UNDEFINED MUTATION] (Q96SW2 whole entry, looked up, stated change not applied): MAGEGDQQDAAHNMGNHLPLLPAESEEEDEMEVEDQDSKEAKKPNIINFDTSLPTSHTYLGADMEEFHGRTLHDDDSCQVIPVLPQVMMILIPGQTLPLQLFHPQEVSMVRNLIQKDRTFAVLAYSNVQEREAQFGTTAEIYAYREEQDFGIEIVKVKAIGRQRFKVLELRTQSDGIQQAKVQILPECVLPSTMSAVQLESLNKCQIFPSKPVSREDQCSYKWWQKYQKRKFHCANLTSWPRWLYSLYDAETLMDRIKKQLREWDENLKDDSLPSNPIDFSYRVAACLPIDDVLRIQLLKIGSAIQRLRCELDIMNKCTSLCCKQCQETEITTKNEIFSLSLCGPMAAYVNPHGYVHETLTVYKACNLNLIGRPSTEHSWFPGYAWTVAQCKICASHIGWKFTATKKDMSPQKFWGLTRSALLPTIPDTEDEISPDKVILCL

The test system is the same in assay [6]. Kind of assay: PROTAC activity at CRBN/FLT3-ITD mutant in human MOLM-13 cells assessed as protein degradation at 100 nM incubated for 8 hrs by Western blot analysis. The format is cell-based.
In assay [7] the test system is MOLM-13. In words: Induction of apoptosis in human MOLM-13 cells at 50 nM incubated for 24 hrs by Annexin V-FITC/PI staining based flow cytometry. In kind it is functional, cell-based. On the technique in general: Flow cytometry measures light scatter and fluorescence of single cells or particles in a stream.
For assay [8], the system named is MV4-11. In words: Induction of apoptosis in human MV4-11 cells at 50 nM incubated for 24 hrs by Annexin V-FITC/PI staining based flow cytometry. In kind it is functional, cell-based.

SMILES strings stand for the structures. The source made the active and inactive calls. The calls are words filed in the database; no cut-off is given here.

A word on the IC50: it is the concentration needed to halve the response being measured. A lower IC50 goes with higher potency. Turning to `Cc1c(NC(=O)CN2CCN(C3CN(c4ccc5c(c4)C(=O)N(C4CCC(=O)NC4=O)C5=O)C3)CC2)c[nH]c1/C=C1\C(=O)Nc2ccc(F)cc21` (stereo not given), the IC50 was 367 nM in assay [1] and 170 nM in assay [2].

Take `Cc1c(NC(=O)CN2CCN(C3CC4(CCN(c5ccc6c(c5)C(=O)N(C5CCC(=O)NC5=O)C6=O)CC4)C3)CC2)c[nH]c1/C=C1\C(=O)Nc2ccc(F)cc21` (stereo not given): the 50% inhibitory concentration (IC50) in assay [1] is 249 nM; in assay [2], 51.7 nM.

For the molecule `Cc1ncsc1-c1ccc(CNC(=O)[C@H]2C[C@H](O)CN2C(=O)[C@@H](NC(=O)CCCCCCCCC(=O)N2CCN(CC(=O)Nc3c[nH]c(/C=C4\C(=O)Nc5ccc(F)cc54)c3C)CC2)C(C)(C)C)cc1`, the 50% inhibitory concentration (IC50) in assay [1] is more than 1000 nM; in assay [2], 410 nM.

Turning to `Cc1c(NC(=O)CN2CCN(C(=O)CCOCCOCCNC(=O)COc3cccc4c3C(=O)N(C3CCC(=O)NC3=O)C4=O)CC2)c[nH]c1/C=C1\C(=O)Nc2ccc(F)cc21` (stereo not given), the concentration for half-maximal inhibition (IC50) is more than 1000 nM in assay [1] and 388 nM in assay [2].

For the molecule `Cc1c(NC(=O)CN2CCN(C(=O)CCCCCCCCCCNc3cccc4c3C(=O)N(C3CCC(=O)NC3=O)C4=O)CC2)c[nH]c1/C=C1\C(=O)Nc2ccc(F)cc21` (stereo not given), the values for the half-inhibitory concentration (IC50) in assay [1] and in assay [2] were 273 nM and 193 nM, respectively.

Regarding `Cc1c(NC(=O)CN2CCN(C(=O)CCCCCCCNc3cccc4c3C(=O)N(C3CCC(=O)NC3=O)C4=O)CC2)c[nH]c1/C=C1\C(=O)Nc2ccc(F)cc21` (stereo not given), the IC50 amounted to 220 nM in assay [1] and 91.4 nM in assay [2].

For the molecule `CC(C)(C)c1cc(NC(=O)Nc2ccc(-c3cn4c(n3)sc3cc(OCCN5CCOCC5)ccc34)cc2)no1` [QUIZARTINIB], the IC50 in assay [1] amounted to 39.4 nM; in assay [3], 40900 nM; in assay [2], 33.7 nM; in assay [4], 1230 nM.

For the molecule `Cc1c(NC(=O)CN2CCN(CCCCCCCCC(=O)Nc3cccc4c3C(=O)N(C3CCC(=O)NC3=O)C4=O)CC2)c[nH]c1/C=C1\C(=O)Nc2ccc(F)cc21` (stereo not given), the half-maximal inhibitory concentration (IC50) in assay [1] amounted to 299 nM; in assay [2], 231 nM.

In the case of `CCc1nc(C(N)=O)c(Nc2ccc(N3CCC(N4CCN(C)CC4)CC3)c(OC)c2)nc1NC1CCOCC1` [GILTERITINIB], the IC50 in assay [1] was 67.5 nM; in assay [3] it was 2320 nM; in assay [2], 40.2 nM; in assay [4], 10900 nM.

Regarding `Cc1c(NC(=O)CN2CCN(C(=O)CCCCC(=O)NCCNc3cccc4c3C(=O)N(C3CCC(=O)NC3=O)C4=O)CC2)c[nH]c1/C=C1\C(=O)Nc2ccc(F)cc21` (stereo not given), the half-maximal inhibitory concentration (IC50) in assay [1] worked out at 657 nM; in assay [2], 201 nM.

As for `Cc1c(NC(=O)CN2CCN(CC3CN(c4ccc5c(c4)C(=O)N(C4CCC(=O)NC4=O)C5=O)C3)CC2)c[nH]c1/C=C1\C(=O)Nc2ccc(F)cc21` (stereo not given), the half-maximal inhibitory concentration (IC50) in assay [1] amounted to 333 nM; in assay [2], 126 nM.

`Cc1c(NC(=O)CN2CCN(C(=O)CCCC(=O)NCCNc3cccc4c3C(=O)N(C3CCC(=O)NC3=O)C4=O)CC2)c[nH]c1/C=C1\C(=O)Nc2ccc(F)cc21` (stereo not given): the values for the half-inhibitory concentration (IC50) in assay [1] and in assay [2] were more than 1000 nM and 230 nM, respectively.

For `Cc1ncsc1-c1ccc(CNC(=O)[C@@H]2C[C@@H](O)CN2C(=O)[C@@H](NC(=O)CCCCC(=O)N2CCN(CC(=O)Nc3c[nH]c(/C=C4\C(=O)Nc5ccc(F)cc54)c3C)CC2)C(C)(C)C)cc1`, the IC50 was more than 1000 nM in assay [1] and 360 nM in assay [2].

Regarding `Cc1c(NC(=O)CN2CCN(C(=O)CCCCCCCC(=O)NCCNc3cccc4c3C(=O)N(C3CCC(=O)NC3=O)C4=O)CC2)c[nH]c1/C=C1\C(=O)Nc2ccc(F)cc21` (stereo not given), the half-inhibitory concentration (IC50) in assay [1] came to 358 nM; in assay [2], 170 nM.

For `Cc1c(NC(=O)CN2CCN(C(=O)CCCCCC(=O)NCCNc3cccc4c3C(=O)N(C3CCC(=O)NC3=O)C4=O)CC2)c[nH]c1/C=C1\C(=O)Nc2ccc(F)cc21` (stereo not given), the IC50 in assay [1] is 487 nM; in assay [2], 168 nM.

With `Cc1c(NC(=O)CN2CCN(C(=O)CCOCCOCCOCCNc3cccc4c3C(=O)N(C3CCC(=O)NC3=O)C4=O)CC2)c[nH]c1/C=C1\C(=O)Nc2ccc(F)cc21` (stereo not given), the IC50 in assay [1] amounted to 445 nM; in assay [2], 396 nM.

With `Cc1c(NC(=O)CN2CCN(C(=O)CCOCCNC(=O)COc3cccc4c3C(=O)N(C3CCC(=O)NC3=O)C4=O)CC2)c[nH]c1/C=C1\C(=O)Nc2ccc(F)cc21` (stereo not given), the IC50 in assay [1] was more than 1000 nM; in assay [2], 812 nM.

`Cc1ncsc1-c1ccc(CNC(=O)[C@H]2C[C@H](O)CN2C(=O)[C@@H](NC(=O)CCCCCCC(=O)N2CCN(CC(=O)Nc3c[nH]c(/C=C4\C(=O)Nc5ccc(F)cc54)c3C)CC2)C(C)(C)C)cc1`: the results for the IC50 in assay [1] and in assay [2] were 399 nM and 262 nM, respectively.

Turning to `Cc1c(NC(=O)CN2CCN(C(=O)CCOCCOCCNc3cccc4c3C(=O)N(C3CCC(=O)NC3=O)C4=O)CC2)c[nH]c1/C=C1\C(=O)Nc2ccc(F)cc21` (stereo not given), the IC50 was 686 nM in assay [1] and 201 nM in assay [2].

As to `Cc1c(NC(=O)CN2CCN(CC3CCN(c4ccc5c(c4)C(=O)N(C4CCC(=O)N(C)C4=O)C5=O)CC3)CC2)c[nH]c1/C=C1\C(=O)Nc2ccc(F)cc21` (stereo not given), the result in assay [5], in assay [6], in assay [7] and in assay [8] was inactive.

Turning to `Cc1c(NC(=O)CN2CCN(C(=O)CCCCCCNc3cccc4c3C(=O)N(C3CCC(=O)NC3=O)C4=O)CC2)c[nH]c1/C=C1\C(=O)Nc2ccc(F)cc21` (stereo not given), the IC50 in assay [1] was found to be 206 nM; in assay [2], 141 nM.

Regarding `Cc1c(NC(=O)CN2CCN(C(=O)CCOCCNc3cccc4c3C(=O)N(C3CCC(=O)NC3=O)C4=O)CC2)c[nH]c1/C=C1\C(=O)Nc2ccc(F)cc21` (stereo not given), the results for the IC50 in assay [1] and in assay [2] were 542 nM and 326 nM, respectively.

Turning to `Cc1c(NC(=O)CN2CCN(C(=O)CCCCCCC(=O)NCCNc3cccc4c3C(=O)N(C3CCC(=O)NC3=O)C4=O)CC2)c[nH]c1/C=C1\C(=O)Nc2ccc(F)cc21` (stereo not given), the values for the IC50 in assay [1] and in assay [2] were 533 nM and 288 nM, respectively.

On to `Cc1c(NC(=O)CN2CCN(CC3CCN(c4cccc5c4C(=O)N(C4CCC(=O)NC4=O)C5=O)CC3)CC2)c[nH]c1/C=C1\C(=O)Nc2ccc(F)cc21` (stereo not given), for which the IC50 in assay [1] is 336 nM; in assay [2] it was 194 nM.

Consider `Cc1ncsc1-c1ccc(CNC(=O)[C@@H]2C[C@@H](O)CN2C(=O)[C@@H](NC(=O)CCCCCC(=O)N2CCN(CC(=O)Nc3c[nH]c(/C=C4\C(=O)Nc5ccc(F)cc54)c3C)CC2)C(C)(C)C)cc1`, for which the figures for the half-maximal inhibitory concentration (IC50) in assay [1] and in assay [2] were more than 1000 nM and 216 nM, respectively.

As for `Cc1c(NC(=O)CN2CCN(C(=O)CCCCCNc3cccc4c3C(=O)N(C3CCC(=O)NC3=O)C4=O)CC2)c[nH]c1/C=C1\C(=O)Nc2ccc(F)cc21` (stereo not given), the IC50 in assay [1] amounted to 208 nM; in assay [2] it was 169 nM.

On to `Cc1c(NC(=O)CN2CCN(C(=O)CCCCCCCCC(=O)NCCNc3cccc4c3C(=O)N(C3CCC(=O)NC3=O)C4=O)CC2)c[nH]c1/C=C1\C(=O)Nc2ccc(F)cc21` (stereo not given), for which the IC50 in assay [1] was determined as 233 nM; in assay [2], 214 nM.

For `CCN(CC)CCNC(=O)c1c(C)[nH]c(/C=C2\C(=O)Nc3ccc(F)cc32)c1C` [SUNITINIB], the 50% inhibitory concentration (IC50) in assay [3] is more than 1000 nM; in assay [4], 1460 nM.

Turning to `Cc1ncsc1-c1ccc(CNC(=O)[C@@H]2C[C@@H](O)CN2C(=O)[C@H](NC(=O)CCCCCCCC(=O)N2CCN(CC(=O)Nc3c[nH]c(/C=C4\C(=O)Nc5ccc(F)cc54)c3C)CC2)C(C)(C)C)cc1`, the IC50 is more than 1000 nM in assay [1] and 191 nM in assay [2].

Consider `Cc1c(NC(=O)CN2CCN(CCCCCCCCCOc3cccc4c3C(=O)N(C3CCC(=O)NC3=O)C4=O)CC2)c[nH]c1/C=C1\C(=O)Nc2ccc(F)cc21` (stereo not given), for which the results for the IC50 in assay [1] and in assay [2] were 276 nM and 130 nM, respectively.

With `Cc1c(NC(=O)CN2CCN(C3CCN(c4ccc5c(c4)C(=O)N(C4CCC(=O)NC4=O)C5=O)CC3)CC2)c[nH]c1/C=C1\C(=O)Nc2ccc(F)cc21` (stereo not given), the concentration for half-maximal inhibition (IC50) in assay [1] was found to be 335 nM; in assay [2], 106 nM.

Turning to `Cc1c(NC(=O)CN2CCN(C(=O)CCCCCCCCCCCNc3cccc4c3C(=O)N(C3CCC(=O)NC3=O)C4=O)CC2)c[nH]c1/C=C1\C(=O)Nc2ccc(F)cc21` (stereo not given), the results for the concentration for half-maximal inhibition (IC50) in assay [1] and in assay [2] were more than 1000 nM and 372 nM, respectively.
